Values quoted from earlier work, collected in PMC5425492 (Clinical Pharmacokinetics, 2016).

Substance | Within-subject variability in glucose-lowering effect [%]
insulin degludec | 20
insulin detemir | 27
